# Source: patent US7022697B2, “4-(Oxadiazol-3-yl)-1,4-diazabicyclo[3.2.2]-nonane derivatives, preparation and therapeutic use thereof” (Sanofi-aventis, priority 2001, dated 2006)
# Counter-ions that a name gives are not always drawn.
row,melting point [°C],SMILES
1,247 to 248,C1CNC(c2nc(N3CCN4CCC3CC4)no2)CN1 (stereo not drawn) (as salt: HBr)
2,269 to 272,c1cc(-c2nc(N3CCN4CCC3CC4)no2)ccn1 (as salt: HBr)
3,258 to 260,c1ccc2sc(-c3nc(N4CCN5CCC4CC5)no3)cc2c1 (as salt: HBr)
4,256 to 258,c1ccc2c(-c3nc(N4CCN5CCC4CC5)no3)cccc2c1 (as salt: HBr)
5,260 to 264,c1cncc(-c2nc(N3CCN4CCC3CC4)no2)c1 (as salt: HBr)
6,249 to 251,c1coc(-c2nc(N3CCN4CCC3CC4)no2)c1 (as salt: HBr)
